6 compounds from ChEMBL document CHEMBL1145565, “Synthesis, biological evaluation and radiochemical labeling of a dansylhydrazone derivative as a potential imaging agent for apoptosis” (2008) can be followed below.

SMILES strings stand for the structures. The source made the active and inactive calls. No cut-off for these calls is given here.

For one assay, the system named is K562. In words: Effect on drug-uptake in imatinib-induced human K562 apoptotic cells. It counts as functional, cell-based.
The subject of another assay is HT-29. As to the kind of experiment: Effect on drug-uptake in imatinib-induced human HT29 apoptotic cells. The class given is functional, cell-based.
The test system of assay [1] is MCF7. In words: Effect on drug uptake in cytoplasm of paclitaxel-treated human MCF7 apoptotic cells. The class given is functional, cell-based.
In assay [2] the test system is MCF7. As to the kind of experiment: Induction of apoptosis in human MCF7 cells assessed as morphology at 50 nM after 16 hrs. The class given is functional.

As to `CN(C)c1cccc2c(S(=O)(=O)N/N=C/c3ccc(I)cc3)cccc12`, the outcome in the assay on K562 and in the assay on HT-29 was Active.

Take `CN(C)c1cccc2c(S(=O)(=O)N/N=C/c3ccc([N+](=O)[O-])cc3)cccc12`: the result in the assay on K562 and with HT-29 was Active.

As to `CN(C)c1ccc(/C=N/NS(=O)(=O)c2cccc3c(N(C)C)cccc23)cc1`, the outcome in the assay on K562 and in the assay on HT-29 was Active.

With `Cc1cc(=O)cc2c3c1[C@@H]1O[C@H]4[C@@H]5OC(=O)[C@](CC2)([C@@H]4C)[C@H]3[C@@H]51`, the result in the assay with K562 and in the assay with HT-29 was Active.

In the case of `CN(C)c1cccc2c(S(=O)(=O)N/N=C\c3ccc(F)cc3)cccc12`, the result with MCF7 [1] was Active.

On to `CC(=O)O[C@H]1C(=O)[C@@]2(C)[C@H]([C@H](OC(=O)c3ccccc3)[C@]3(O)C[C@H](OC(=O)[C@H](O)[C@@H](NC(=O)c4ccccc4)c4ccccc4)C(C)=C1C3(C)C)[C@]1(OC(C)=O)CO[C@@H]1C[C@@H]2O` [PACLITAXEL], for which the Activity in the assay with MCF7 [2] was 30%.
